In the NIST ThermoML archive (doi:10.1016/j.jct.2007.11.011):

Assay: xn = mol fraction of the nth substance listed
Conditions: Liquid

CCOS(=O)(=O)[O-].CCn1cc[n+](C)c1 [1-ethyl-3-methylimidazolium ethyl sulfate] + CO
mass density [kg/m3]
Conditions | 100 kPa | 2500 kPa | 5000 kPa | 10000 kPa | 15000 kPa | 20000 kPa | 25000 kPa | 30000 kPa | 35000 kPa
303.15 K, x1 = 0.04781 | – | – | – | – | – | 892.79 | 896.28 | 899.65 | 902.86
303.15 K, x1 = 0.1026 | – | – | – | – | – | 965.4 | 968.54 | 971.57 | 974.42
303.15 K, x1 = 0.1977 | – | – | – | – | – | 1047.97 | 1050.68 | 1053.34 | 1055.86
303.15 K, x1 = 0.2432 | – | – | – | – | – | 1076.28 | 1078.9 | 1081.44 | 1083.87
303.15 K, x1 = 0.3026 | – | – | – | – | – | 1106.82 | 1109.29 | 1111.72 | 1114.04
303.15 K, x1 = 0.3887 | – | – | – | – | 1137.67 | 1140.05 | 1142.39 | 1144.7 | 1146.89
303.15 K, x1 = 0.485 | – | – | – | – | 1165.38 | 1167.67 | 1169.9 | 1172.11 | 1174.2
303.15 K, x1 = 0.589 | – | – | – | – | 1187.91 | 1190.1 | 1192.25 | 1194.38 | 1196.4
303.15 K, x1 = 0.7289 | – | – | – | – | 1210.81 | 1212.92 | 1214.99 | 1217.04 | 1219
303.15 K, x1 = 0.8521 | – | – | – | – | 1225.51 | 1227.56 | 1229.58 | 1231.59 | 1233.49
303.15 K, x1 = 0.9397 | – | – | – | – | 1234.67 | 1236.7 | 1238.71 | 1240.68 | 1242.56
313.15 K, x1 = 0.04781 | 868.71 | 870.87 | 873 | 877.12 | 881.03 | 884.83 | 888.46 | 891.58 | 896.52
313.15 K, x1 = 0.1026 | 943.67 | 945.44 | 947.28 | 950.87 | 954.31 | 957.65 | 960.89 | 964.01 | 967.07
313.15 K, x1 = 0.1977 | 1028.79 | 1030.21 | 1031.77 | 1034.78 | 1037.72 | 1040.6 | 1043.41 | 1046.12 | 1048.8
313.15 K, x1 = 0.2432 | 1057.64 | 1059.08 | 1060.59 | 1063.49 | 1066.28 | 1069.03 | 1071.73 | 1074.34 | 1076.92
313.15 K, x1 = 0.3026 | 1088.94 | 1090.22 | 1091.62 | 1094.33 | 1097 | 1099.6 | 1102.15 | 1104.62 | 1107.08
313.15 K, x1 = 0.3887 | 1122.96 | 1124.22 | 1125.52 | 1128.06 | 1130.57 | 1133.05 | 1135.46 | 1137.8 | 1140.13
313.15 K, x1 = 0.485 | 1151.19 | 1152.35 | 1153.6 | 1156.03 | 1158.42 | 1160.76 | 1163.07 | 1165.3 | 1167.55
313.15 K, x1 = 0.589 | 1174.15 | 1175.21 | 1176.41 | 1178.75 | 1181.04 | 1183.3 | 1185.51 | 1187.68 | 1189.83
313.15 K, x1 = 0.7289 | 1197.48 | 1198.52 | 1199.65 | 1201.89 | 1204.09 | 1206.26 | 1208.39 | 1210.48 | 1212.56
313.15 K, x1 = 0.8521 | 1212.41 | 1213.23 | 1214.31 | 1216.48 | 1218.62 | 1220.72 | 1222.81 | 1224.83 | 1226.88
313.15 K, x1 = 0.9397 | 1221.68 | 1222.7 | 1223.82 | 1225.96 | 1228.06 | 1230.16 | 1232.21 | 1234.23 | 1236.23
323.15 K, x1 = 0.04781 | 859.88 | 862.14 | 864.43 | – | – | – | – | – | –
323.15 K, x1 = 0.1026 | 935.3 | 937.17 | 939.08 | – | – | – | – | – | –
323.15 K, x1 = 0.1977 | 1020.88 | 1022.39 | – | – | – | – | – | – | –
323.15 K, x1 = 0.2432 | 1049.97 | 1051.46 | – | – | – | – | – | – | –
323.15 K, x1 = 0.3026 | 1081.45 | 1082.65 | – | – | – | – | – | – | –
323.15 K, x1 = 0.3887 | 1115.61 | 1116.83 | – | – | – | – | – | – | –
323.15 K, x1 = 0.485 | 1143.95 | 1145.15 | – | – | – | – | – | – | –
323.15 K, x1 = 0.589 | 1167 | 1168.12 | – | – | – | – | – | – | –
323.15 K, x1 = 0.7289 | 1190.46 | 1191.53 | – | – | – | – | – | – | –
323.15 K, x1 = 0.8521 | 1205.38 | 1206.3 | – | – | – | – | – | – | –
323.15 K, x1 = 0.9397 | 1214.87 | 1215.9 | – | – | – | – | – | – | –
